Source: paper PMC10122656, “Siglec-6 mediates the uptake of extracellular vesicles through a noncanonical glycolipid binding pocket” (Nature Communications, 2023)
Values joined by “and” are separate entries in the source; they are usually repeats but may differ in a detail not shown here. Equal entries are not always repeated.

Experiments:
[1] = target: T1, WT Siglec-6 CHO cells (Homo sapiens, UniProt O43699); test: Cell assay (liposome/EV binding, flow cytometry);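 for liposome binding, fluorescence signal (replicates): AF647 fluorescence intensity from 0.1 mol% AF647–PEG45–DSPE in liposomes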; type: cell-based; conditions: for Binding of liposomes to WT Siglec-6 CHO cells relative to liposomes formulated without a ligand (Fig. 3c): 3 mol% glycolipid, Cer = native ganglioside, Amide = amide-linked nGL; for Binding of liposomes to WT Siglec-6 CHO cells relative to liposomes formulated without a ligand (Fig. 3c) / Binding of nGL liposomes relative to liposomes formulated with 3 mol% nGL 5 (Fig. 3g): replicates; for nGLL binding to WT Siglec-6 CHO cells (in words): 3 mol% nGL in liposomes; for Binding of nGL liposomes relative to liposomes formulated with 3 mol% nGL 5 (Fig. 3g): WT Siglec-6 CHO cells
T1 construct: expressed in transfected cells
Description: (§1) Stock lipids (DSPC, Cholesterol, PEG45–DSPE) solutions were prepared by solvating the lipids in chloroform. An appropriate volume of each lipid solution was transferred to a glass test tube to reach the desired mol% of the component. The chloroform was then removed under N2 gas to yield a lipid thin film. Once dry, 100 µL of DMSO was added to the lipid-containing test tube and then the functional lipids (ganglioside, AF647–PEG45–DSPE, Siglec ligand–PEG45–DSPE, pHrodo–PEG45–DSPE, NGL) was added from their respect DMSO stock solution. The lipid mixture was then stored at −80 °C until completely frozen at which point excess DMSO was removed via lyophilization. Dry lipids were then stored at −80 °C until they were extruded. Lipid suppliers can be found in Supplementary Table 4.
(§2) Dry lipids were then hydrated in 1 mL of PBS. The lipids were then sonicated in a bath sonicator in a cycle of 1 min on, 5 min off for a total of five cycles. Liposomes were then extruded using an Avanti mini extruder first using an 800 nm filter and then a 100 nm filter yielding liposomes that were 130 ± 35 nm (Supplementary Table 5) measured using a Malvern Panalytical Zetasizer Nano S. Liposomes were stored at 4 °C.
(§3) 200,000 cells/well were plated into a 96-well U-bottom microplate and centrifuged at 300 × g for 5 min. The cells were then resuspended in 50 µL of 50 µM liposome/50 µg/mL (protein concentration) of EV solution in DMEM F12 5% FBS and incubated at 37 °C for 30 min. Excess liposomes were then removed via centrifuged at 300 × g for 5 min followed by washing the cells with FACS solution. The cells were then resuspended in (1:250 V/V) anti-Siglec-flow buffer (1% V/V FBS, 500 µM, EDTA Hank’s Balanced Salt Solution pH 7.4), solution and left to rest on ice for 30 min. The cells were then centrifuged again at 300 × g for 5 min and the cells were resuspended in FACS buffer solution and were then ready for analysis by flow cytometry. Information regarding antibody clone, catalog number supplier, label isotype, and dilution can be found in Supplementary Table 6. The Siglec-positive cells were gated on for liposome-binding analysis (Supplementary Fig. 1b).
(§4) Flow cytometry measurements were collected on a 5-laser Fortessa X-20 (BD Bioscience). All the resulting data were analyzed using FlowJo (10.5.3) software (BD Biosciences).

[2] = target: Siglec-1 fragment (Homo sapiens, UniProt Q9BZZ2); test: Direct ESI-MS binding assay; conditions: oligosaccharide moiety of the ganglioside; 3.6 µM Siglec-1 fragment, 20-140 µM ligand; table gives replicates, text mean ± SD; read-out: dissociation constant (Kd) of soluble Siglec-1 to the ganglioside oligosaccharide
Description: The affinities of ganglioside (GM1, GM2, GM3, and GD1a) oligosaccharides (L) for the Siglec-1 fragment were measured by the direct ESI-MS assay[1]. A reference protein (Pref) was added to the ESI solutions in order to correct mass spectra for any nonspecific binding that occurred during the ESI process[2]. […] Direct ESI-MS measurements were performed with nanoflow ESI in positive ion mode (voltage ~1 kV) on a Q-Exactive Orbitrap mass spectrometer (Thermo Fisher Scientific). Automatic gain control (AGC) target, the maximum inject time, capillary temperature, and S-lens RF level were set to 1 × 10^6, 100 ms, 150, and 100 °C, respectively. The resolution was 17,500 at m/z 200. Data acquisition and processing were carried out using Xcalibur (Thermo Fisher, version 4.1).

[3] = target: T2, R122A Siglec-6 CHO cells (Homo sapiens, UniProt O43699, R122A); test: Cell assay (liposome/EV binding, flow cytometry);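 for liposome binding, fluorescence signal (replicates): AF647 fluorescence intensity from 0.1 mol% AF647–PEG45–DSPE in liposomes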; type: cell-based; conditions: for nGLL binding to R122A Siglec-6 CHO cells (in words): 3 mol% nGL in liposomes, compared to 3 mol% 5; for Binding of nGL liposomes relative to liposomes formulated with 3 mol% nGL 5 (Fig. 3g): R122A Siglec-6 CHO cells, replicates; for liposome binding, fluorescence signal (replicates): sheet Figure S18b, cells not given
T2 construct: expressed in transfected cells
Description: as §1, §2, §3, §4

[4] = test system: untransfected (UT) CHO cells; test: Cell assay (liposome/EV binding, flow cytometry); type: cell-based, Chinese Hamster; conditions: sheet Figure S22b, CHO;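 note: AF647 fluorescence intensity from 0.1 mol% AF647–PEG45–DSPE in liposomes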
Description: as §1, §2, §3, §4

[5] = target: T3, WT Siglec-1 CHO cells (Homo sapiens, UniProt Q9BZZ2); test: Cell assay (liposome/EV binding, flow cytometry); type: cell-based; set-up: GM1 liposome binding to Siglec-1 CHO cells, flow cytometry (Fig. 1b) / Binding of liposomes with increasing ganglioside content against Siglec-1 CHO cells (Fig. 1c) / Liposome binding to Siglec-1-expressing CHO cells in the cell assay (Fig. 1f): unit not given here
T3 construct: expressed in transfected cells
Description: as §1, §2, §3, §4

[6] = sheet Figure S17, cells not given, three experiments, each with its own Naked control
[7] = sheet Figure S18a, cells not given

T1 sequence (O43699 27-453): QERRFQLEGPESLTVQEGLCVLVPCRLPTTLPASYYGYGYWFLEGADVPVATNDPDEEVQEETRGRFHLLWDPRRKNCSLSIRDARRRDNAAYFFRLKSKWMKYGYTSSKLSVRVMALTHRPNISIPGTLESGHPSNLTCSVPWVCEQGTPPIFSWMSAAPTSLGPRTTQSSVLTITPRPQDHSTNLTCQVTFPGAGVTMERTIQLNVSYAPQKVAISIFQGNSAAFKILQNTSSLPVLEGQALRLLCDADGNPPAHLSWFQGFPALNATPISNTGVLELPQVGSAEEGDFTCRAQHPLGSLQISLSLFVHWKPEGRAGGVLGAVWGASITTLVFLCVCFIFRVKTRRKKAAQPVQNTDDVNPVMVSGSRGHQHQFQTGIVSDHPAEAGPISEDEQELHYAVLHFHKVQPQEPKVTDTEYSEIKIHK
T3 sequence (Q9BZZ2 20-1709): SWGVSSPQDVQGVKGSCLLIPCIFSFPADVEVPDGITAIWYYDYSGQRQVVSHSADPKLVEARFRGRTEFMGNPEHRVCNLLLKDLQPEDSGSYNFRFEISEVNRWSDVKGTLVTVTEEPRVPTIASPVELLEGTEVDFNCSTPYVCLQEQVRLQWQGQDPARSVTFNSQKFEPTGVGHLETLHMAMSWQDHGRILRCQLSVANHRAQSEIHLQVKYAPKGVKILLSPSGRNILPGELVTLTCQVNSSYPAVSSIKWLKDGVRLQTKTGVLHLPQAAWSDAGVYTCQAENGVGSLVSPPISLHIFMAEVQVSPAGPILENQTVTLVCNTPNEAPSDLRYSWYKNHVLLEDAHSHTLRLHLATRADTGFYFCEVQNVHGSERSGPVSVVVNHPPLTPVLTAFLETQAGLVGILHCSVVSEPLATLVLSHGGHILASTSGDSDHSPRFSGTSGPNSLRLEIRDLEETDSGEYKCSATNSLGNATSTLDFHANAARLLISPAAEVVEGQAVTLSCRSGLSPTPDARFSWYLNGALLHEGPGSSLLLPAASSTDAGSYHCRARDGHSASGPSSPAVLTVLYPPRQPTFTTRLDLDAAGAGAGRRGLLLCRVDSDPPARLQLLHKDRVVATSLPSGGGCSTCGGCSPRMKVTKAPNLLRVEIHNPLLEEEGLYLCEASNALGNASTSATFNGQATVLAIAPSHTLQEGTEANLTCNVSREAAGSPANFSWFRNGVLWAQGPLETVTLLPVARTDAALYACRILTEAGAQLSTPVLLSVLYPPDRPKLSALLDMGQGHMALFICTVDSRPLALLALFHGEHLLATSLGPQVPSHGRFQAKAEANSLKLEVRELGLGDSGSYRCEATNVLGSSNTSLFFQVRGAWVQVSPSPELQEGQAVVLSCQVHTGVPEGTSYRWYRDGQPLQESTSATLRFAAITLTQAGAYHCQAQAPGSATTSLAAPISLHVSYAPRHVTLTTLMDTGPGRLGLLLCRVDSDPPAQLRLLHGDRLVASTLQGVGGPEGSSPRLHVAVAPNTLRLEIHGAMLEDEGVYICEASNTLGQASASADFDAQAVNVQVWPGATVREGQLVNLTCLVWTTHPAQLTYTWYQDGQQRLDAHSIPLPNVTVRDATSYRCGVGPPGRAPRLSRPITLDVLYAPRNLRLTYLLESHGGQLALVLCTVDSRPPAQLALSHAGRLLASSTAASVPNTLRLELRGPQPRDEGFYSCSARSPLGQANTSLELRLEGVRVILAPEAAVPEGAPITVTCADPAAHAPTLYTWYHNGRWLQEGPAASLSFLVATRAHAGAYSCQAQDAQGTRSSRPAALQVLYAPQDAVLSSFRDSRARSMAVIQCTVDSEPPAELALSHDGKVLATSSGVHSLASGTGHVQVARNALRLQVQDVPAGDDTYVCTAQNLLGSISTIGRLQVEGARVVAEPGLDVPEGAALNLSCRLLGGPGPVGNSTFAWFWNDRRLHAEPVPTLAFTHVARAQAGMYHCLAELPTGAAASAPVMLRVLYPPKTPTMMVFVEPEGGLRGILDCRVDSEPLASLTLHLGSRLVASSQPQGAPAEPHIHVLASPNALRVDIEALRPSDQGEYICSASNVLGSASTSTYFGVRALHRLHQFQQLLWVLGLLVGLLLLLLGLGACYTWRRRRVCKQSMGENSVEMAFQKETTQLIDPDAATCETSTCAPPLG
T2 sequence (O43699 27-453 R122A): as the sequence (O43699 27-453) above, with R96A counted along it
Chain of Siglec-1 fragment (Q9BZZ2 20-136 limits assumed): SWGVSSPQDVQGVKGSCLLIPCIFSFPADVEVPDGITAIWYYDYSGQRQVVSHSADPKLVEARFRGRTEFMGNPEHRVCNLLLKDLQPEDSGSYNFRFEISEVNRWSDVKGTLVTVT

Compound	Binding of nGL liposomes relative to liposomes formulated with 3 mol% nGL 5 (Fig. 3g) [3]	liposome binding, fluorescence signal (replicates) [3]	nGLL binding to WT Siglec-6 CHO cells (in words) [1]	Binding of nGL liposomes relative to liposomes formulated with 3 mol% nGL 5 (Fig. 3g) [1]	liposome binding, fluorescence signal (replicates) [1, 7]	further results
CCCCCCCCCCCCCCCCOCC(COCCCCCCCCCCCCCCCC)OCC(=O)NCCO[C@@H]1O[C@H](CO)[C@@H](O[C@@H]2O[C@H](CO)[C@H](O)[C@H](O[C@]3(C(=O)O)C[C@H](O)[C@@H](NC(C)=O)[C@H]([C@H](O)[C@H](O)CO)O3)[C@H]2O)[C@H](O)[C@H]1O [nGL 4]	–	–	–	–	–	Binding of liposomes to WT Siglec-6 CHO cells relative to liposomes formulated without a ligand (Fig. 3c) ([1]; listed as GM3 Amide): 2.34 and 2.47 and 2.38 and 2.75; liposome binding, fluorescence signal (replicates) [1, 6]: 713 and 752 and 727 and 839
CC(=O)N[C@H]1[C@H]([C@H](O)[C@H](O)CO)O[C@@](O[C@H]2[C@@H](O)[C@@H](CO)O[C@@H](O[C@H]3[C@H](O)[C@@H](O)C(O)O[C@@H]3CO)[C@@H]2O)(C(=O)O)C[C@@H]1O (stereo partly drawn) [GM3 trisaccharide, α-Neup5Ac-(2 → 3)-β-lactose]	–	–	–	–	–	Kd [2]: 500 ± 100 µM
CCCCCCCCCCCCCCCCOCC(COCCCCCCCCCCCCCCCC)OCc1cn(CCO[C@@H]2O[C@H](CO)[C@@H](O[C@@H]3O[C@H](CO[C@]4(C(=O)O)C[C@H](O)[C@@H](NC(C)=O)[C@H]([C@H](O)[C@H](O)CO)O4)[C@H](O)[C@H](O)[C@H]3O)[C@H](O)[C@H]2O)nn1 [nGL 8]	0.06 and 0.08 and 0.07	599 and 635 and 605	bound minimally	0.05 and 0.03 and 0.06 and 0.07	720 and 670 and 748 and 768	nGLL binding to R122A Siglec-6 CHO cells (in words) [3]: bound minimally
CCCCCCCCCCCCCCCCOCC(COCCCCCCCCCCCCCCCC)OCC(=O)NCCO[C@@H]1O[C@H](CO)[C@@H](O[C@@H]2O[C@H](CO)[C@H](O[C@@H]3O[C@H](CO)[C@H](O)[C@H](O[C@@H]4O[C@H](CO)[C@H](O)[C@H](O)[C@H]4O)[C@H]3NC(C)=O)[C@H](O[C@]3(C(=O)O)C[C@H](O)[C@@H](NC(C)=O)[C@H]([C@H](O)[C@H](O)CO)O3)[C@H]2O)[C@H](O)[C@H]1O [nGL 3]	–	–	bound minimally	–	–	Binding of liposomes to WT Siglec-6 CHO cells relative to liposomes formulated without a ligand (Fig. 3c) ([1]; listed as GM1 Amide): 0.68 and 0.67 and 0.66 and 0.75; liposome binding, fluorescence signal (replicates) [1, 6]: 541 and 535 and 525 and 596
asialo GM1 [GA1]	–	–	–	–	–	liposome binding, fluorescence signal (replicates) [4]: 60 and 57 and 55 and 52; Liposome binding to Siglec-1-expressing CHO cells in the cell assay (Fig. 1f) ([5]; 3% glycolipid in liposome, replicates): 71 and 68; binding to WT Siglec-1 CHO cells (in words) ([5]; cell assay): did not mediate binding; liposome binding, fluorescence signal (replicates) ([1]; sheet Figure S22b, Sig-6): 66 and 69 and 61 and 64

The next lines start with results.

Binding of nGL liposomes relative to liposomes formulated with 3 mol% nGL 5 (Fig. 3g) [3]	liposome binding, fluorescence signal (replicates) [3]	nGLL binding to WT Siglec-6 CHO cells (in words) [1]	Binding of nGL liposomes relative to liposomes formulated with 3 mol% nGL 5 (Fig. 3g) [1]	liposome binding, fluorescence signal (replicates) [1, 7]	Compound	further results
0.23 and 0.15 and 0.27	899 and 894 and 758 and 962	bound minimally	0.19 and 0.16 and 0.21	1069 and 1003 and 987 and 1125	CCCCCCCCCCCCCCCCOCC(COCCCCCCCCCCCCCCCC)OCc1cn(CCO[C@@H]2O[C@H](CO)[C@@H](O[C@@H]3O[C@H](CO[C@]4(C(=O)O)C[C@H](O)[C@@H](NC(C)=O)[C@H]([C@H](O)[C@H](O)CO)O4)[C@H](O)[C@H](O)[C@H]3O)[C@H](O)[C@H]2NC(C)=O)nn1 [nGL 10]	nGLL binding to R122A Siglec-6 CHO cells (in words) [3]: bound minimally
0.83 and 0.93 and 0.81 and 1.01	1939 and 2127 and 1908 and 2268	modestly lower	0.77 and 0.6 and 0.59 and 0.63	2520 and 2097 and 2058 and 2158	CCCCCCCCCCCCCCCCOCC(COCCCCCCCCCCCCCCCC)OCc1cn(CCO[C@@H]2O[C@H](CO)[C@@H](O[C@@H]3O[C@H](CO)[C@H](O)[C@H](O[C@]4(C(=O)O)C[C@H](O)[C@@H](NC(C)=O)[C@H]([C@H](O)[C@H](O)CO)O4)[C@H]3O)[C@H](O)[C@H]2NC(C)=O)nn1 [nGL 9]	–
